Columns and labels:
Mus musculus = experiment: Toxicity in ip dosed mouse relative to roridin A; type: organism-based; details: in vivo
K562 = experiment: Cytotoxicity against human K562 cells by MTT assay; type: functional, cell-based
[1] = Toxicity in mouse CD4+ T cells assessed as induction of IL5 at 100 ng/ml; type: cell-based; details: t-cell
[2] = Toxicity in ip dosed mouse; type: organism-based; details: in vivo
[3] = Toxicity in mouse CD4+ T cells assessed as induction of IL5 at 0.05 ng/ml; type: cell-based; details: t-cell
[4] = Toxicity in mouse CD4+ T cells assessed as induction of IL5 at 500 ng/ml; type: cell-based; details: t-cell
[5] = Toxicity in mouse CD4+ T cells assessed as induction of IL5 at 1.0 ng/ml; type: cell-based; details: t-cell
[6] = Toxicity in mouse CD4+ T cells assessed as induction of IL5 at 1000 ng/ml; type: cell-based; details: t-cell

SMILES | Activity (Mus musculus) | EC50 (K562) [nM] | other results
CC(=O)OC[C@]12CCC(C)=C[C@H]1O[C@@H]1[C@H](O)[C@@H](OC(C)=O)[C@@]2(C)[C@]12CO2 [ANGUIDIN] | 23 | 2.7 | –
CC(=O)OC[C@]12C[C@H](O)C(C)=C[C@H]1O[C@@H]1[C@H](O)[C@@H](OC(C)=O)[C@@]2(C)[C@]12CO2 [NEOSOLANIOL] | 0.5 | 392 | –
CC1=C[C@H]2O[C@@H]3[C@H](O)[C@@H](O)[C@](C)([C@@]2(CO)[C@H](O)C1=O)[C@]31CO1 [NIVALENOL] | – | 960 | Activity [1]: Toxic; LD50 [2]: 4.1 mg/kg
CC1=C[C@H]2O[C@@H]3C[C@H]4OC(=O)/C=C\C=C\C(=O)OCC[C@@H](C)[C@H](O)C(=O)OC[C@@]2(CC1)[C@]4(C)[C@]31CO1 [VERRUCARIN A] | 1.5 | – | Activity [3]: Toxic
CC(=O)OC[C@]12[C@H](O)C(=O)C(C)=C[C@H]1O[C@@H]1[C@H](O)C[C@@]2(C)[C@]12CO2 [15-ACETYLDEOXYNIVALENOL] | – | – | Activity [4]: Toxic
CC1=C[C@H]2O[C@@H]3[C@H](O)C[C@](C)([C@@]2(CO)[C@H](O)C1=O)[C@]31CO1 [DEOXYNIVALENOL] | 4 | 1010 | Activity [1]: Toxic; LD50 [2]: 70 mg/kg
CC1=C[C@H]2O[C@@H]3C[C@@H]4OC(=O)/C=C/C=C/COCC/C([C@@H](O)[C@H](C)O)=C/C(=O)OC[C@@]2(CC1)[C@]4(C)[C@]31CO1 [SATRATOXIN H] | 1 | – | –
CC(=O)OC[C@]12C[C@H](OC(=O)CC(C)C)C(C)=C[C@H]1O[C@@H]1[C@H](O)[C@@H](OC(C)=O)[C@@]2(C)[C@]12CO2 [T-2 TOXIN] | 3 | 2.1 | Activity [5]: Toxic
CC(=O)O[C@@H]1C[C@]2(C)[C@@]3(CO)[C@H](O)C(=O)C(C)=C[C@H]3O[C@H]1[C@@]21CO1 [3-ACETYLDEOXYNIVALENOL] | – | – | Activity [6]: Toxic
CC(=O)OC[C@]12C[C@H](OC(=O)CC(C)C)C(C)=C[C@H]1O[C@@H]1[C@H](O)[C@@H](O)[C@@]2(C)[C@]12CO2 [HT-2 TOXIN] | 9 | 47.1 | –

Reference: ChEMBL document CHEMBL1149871, “Structure and conformational dynamics of trichothecene mycotoxins” (J Nat Prod, 2008)
